The record followed here is patent US10045983B2, “Heteroaryl pyridone and aza-pyrodine compounds” (Genentech, Inc., priority 2011, dated 2018).

This experiment can be described thus: CD69 Whole Blood Assay (CD69 Hu Blood FACS). Type of experiment: cell-based, human. The following applies: Lymphocyte; human whole blood, anti-IgM activated B lymphocytes, FACS; IC70; Table 2 (unit inferred); read-out: CD69 Hu Blood FACS (IC70). In short, it runs like this: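 Human whole blood stimulated by crosslinking surface IgM with goat F(ab′)2 anti-human IgM; inhibition of CD69 expression on B lymphocytes measured by flow cytometry.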
With `C[C@H]1CN(C2COC2)CCN1c1ccc(Nc2cc(-c3ccnc(-n4ncc5c6c(sc5c4=O)CCCC6)c3CO)cn(C)c2=O)nc1` [Example 191, 5-[3-(Hydroxymethyl)-4-[1-methyl-5-({5-[(2S)-2-methyl-4-(oxetan-3-yl)pipera-zin-1-yl]pyridin-2-yl}amino)-6-oxo-1,6-dihydropyridin-3-yl]pyridin-2-yl]-8-thia-4,5-diazatricyclo[7.4.0.0^2,7]trideca-1(9),2(7),3-trien-6-one], the IC70 was found to be 0.0435 µM.

Take `C[C@H]1CN(C2COC2)CCN1c1ccc(Nc2cc(-c3ccnc(-n4ncc5c6n(cc5c4=O)CCCC6)c3CO)cn(C)c2=O)nc1` [Example 192, 3-[3-(hydroxymethyl)-4-[1-methyl-5-[[5-[(2S)-2-methyl-4-(oxetan-3-yl)piperazin-1-yl]-2-pyridyl]amino]-6-oxo-3-pyridyl]-2-pyridyl]-7,8,9,10-tetrahydropyridazino[4,5-a]indolizin-4-one]: the IC70 came to 1.1 µM. For the compound `C[C@H]1CN(C2COC2)CCN1c1ccc(Nc2cc(-c3ccnc(-n4ncc5c(cc6n5CCCC6)c4=O)c3CO)cn(C)c2=O)nc1` [Example 193, 2-[3-(hydroxymethyl)-4-[1-methyl-5-[[5-[(2S)-2-methyl-4-(oxetan-3-yl)piperazin-1-yl]-2-pyridyl]amino]-6-oxo-3-pyridyl]-2-pyridyl]-6,7,8,9-tetrahydropyridazino[4,5-b]indolizin-1-one], the IC70 stood at 0.0995 µM. Turning to `Cn1cc(-c2ccnc(-n3ncc4c5c(sc4c3=O)CCCC5)c2CO)cc(Nc2cnccn2)c1=O` [Example 194, 3-[3-(hydroxymethyl)-4-[1-methyl-6-oxo-5-(pyrazin-2-ylamino)-3-pyridyl]-2-pyridyl]-6,7,8,9-tetrahydrobenzothiopheno[2,3-d]pyridazin-4-one], the IC70 was 1.2 µM. In the case of `CN1CCn2nc(Nc3cc(-c4ccnc(-n5ccn6c7c(cc6c5=O)CCCC7)c4CO)cn(C)c3=O)cc2C1` [Example 195, 2-[3-(hydroxymethyl)-4-[1-methyl-5-[(5-methyl-6,7-dihydro-4H-pyrazolo[1,5-a]pyrazin-2-yl)amino]-6-oxo-3-pyridyl]-2-pyridyl]-6,7,8,9-tetrahydropyrazino[1,2-a]indol-1-one] it was 0.101 µM; in that of `Cn1cc(-c2ccnc(N3CCn4c(cc5c4CCCC5)C3=O)c2CO)nc(Nc2ccc(N3CCN(C4COC4)CC3)nc2)c1=O` [Example 197, 2-[3-(hydroxymethyl)-4-[4-methyl-6-[[6-[4-(oxetan-3-yl)piperazin-1-yl]-3-pyridyl]amino]-5-oxo-pyrazin-2-yl]-2-pyridyl]-3,4,6,7,8,9-hexahydropyrazino[1,2-a]indol-1-one], 2.3 µM.

As for `Cn1cc(-c2ccnc(-n3ncc4c5n(cc4c3=O)CCCC5)c2CO)cc(Nc2ccc(N3CCN(C4COC4)CC3)cn2)c1=O` [Example 198, 3-[3-(hydroxymethyl)-4-[1-methyl-5-[[5-[4-(oxetan-3-yl)piperazin-1-yl]-2-pyridyl]amino]-6-oxo-3-pyridyl]-2-pyridyl]-7,8,9,10-tetrahydropyridazino[4,5-a]indolizin-4-one], the IC70 came out at 6 µM. With `Cn1cc(-c2ccnc(N3CCn4c(cc5c4CC(C)(C)C5)C3=O)c2CO)cc(Nc2ccn3ccnc3n2)c1=O` [Example 199, 3-[3-(hydroxymethyl)-4-[5-(imidazo[1,2-a]pyrimidin-7-ylamino)-1-methyl-6-oxo-3-pyridyl]-2-pyridyl]-7,7-dimethyl-1,2,6,8-tetrahydrocyclopenta[3,4]pyrrolo[3,5-b]pyrazin-4-one], the IC70 turned out to be 0.934 µM. Next, `Cn1cc(-c2ccnc(N3CCn4c(cc5c4CCCC5)C3=O)c2CO)cc(Nc2ccc(C3=CCN(C4COC4)CC3)cn2)c1=O` [Example 200, 2-[3-(hydroxymethyl)-4-[1-methyl-5-[[5-[1-(oxetan-3-yl)-3,6-dihydro-2H-pyridin-4-yl]-2-pyridyl]amino]-6-oxo-3-pyridyl]-2-pyridyl]-3,4,6,7,8,9-hexahydropyrazino[1,2-a]indol-1-one]: 0.636 µM; `Cn1cc(-c2ccnc(N3CCn4c(cc5c4CC(C)(C)C5)C3=O)c2CO)nc(Nc2ccc3nccn3c2)c1=O` [Example 201, 3-[3-(hydroxymethyl)-4-[6-(imidazo[1,2-a]pyridin-6-ylamino)-4-methyl-5-oxo-pyrazin-2-yl]-2-pyridyl]-7,7-dimethyl-1,2,6,8-tetrahydrocyclopenta[3,4]pyrrolo[3,5-b]pyrazin-4-one]: 3.3 µM; `CN1CCn2nc(Nc3cc(-c4ccnc(-n5ncc6c7n(cc6c5=O)CCCC7)c4CO)cn(C)c3=O)cc2C1` [Example 202, 3-[3-(hydroxymethyl)-4-[1-methyl-5-[(5-methyl-6,7-dihydro-4H-pyrazolo[1,5-a]pyrazin-2-yl)amino]-6-oxo-3-pyridyl]-2-pyridyl]-7,8,9,10-tetrahydropyridazino[4,5-a]indolizin-4-one]: 7.3 µM. On to `CN1CCc2nc(Nc3cc(-c4ccnc(N5CCn6c(cc7c6CC(C)(C)C7)C5=O)c4CO)cn(C)c3=O)sc2C1` [Example 203, 3-[3-(hydroxymethyl)-4-[1-methyl-5-[(5-methyl-6,7-dihydro-4H-thiazolo[5,4-c]pyridin-2-yl)amino]-6-oxo-3-pyridyl]-2-pyridyl]-7,7-dimethyl-1,2,6,8-tetrahydrocyclopenta[3,4]pyrrolo[3,5-b]pyrazin-4-one], for which the IC70 was 0.0605 µM.

Take `CN1CCn2nc(Nc3cc(-c4ccnc(-n5ncc6c(cc7n6CCCC7)c5=O)c4CO)cn(C)c3=O)cc2C1` [Example 204, 2-[3-(hydroxymethyl)-4-[1-methyl-5-[(5-methyl-6,7-dihydro-4H-pyrazolo[1,5-a]pyrazin-2-yl)amino]-6-oxo-3-pyridyl]-2-pyridyl]-6,7,8,9-tetrahydropyridazino[4,5-b]indolizin-1-one]: the IC70 came out at 0.436 µM.

As to `Cn1cc(-c2ccnc(N3CCn4c(cc5c4CCCC5)C3=O)c2CO)cc(Nc2cc3n(n2)CCNC3)c1=O` [Example 205, 2-[3-(hydroxymethyl)-4-[1-methyl-6-oxo-5-(4,5,6,7-tetrahydropyrazolo[1,5-a]pyrazin-2-ylamino)-3-pyridyl]-2-pyridyl]-3,4,6,7,8,9-hexahydropyrazino[1,2-a]indol-1-one], the IC70 came out at 0.114 µM.

For the compound `CN1CC(Oc2ccc(Nc3cc(-c4ccnc(N5CCn6c(cc7c6CCCC7)C5=O)c4CO)cn(C)c3=O)nc2)C1` [Example 206, 2-[3-(hydroxymethyl)-4-[1-methyl-5-[[5-(1-methylazetidin-3-yl)oxy-2-pyridyl]amino]-6-oxo-3-pyridyl]-2-pyridyl]-3,4,6,7,8,9-hexahydropyrazino[1,2-a]indol-1-one], the IC70 was found to be 0.15 µM.

Regarding `CN1CC(Oc2ccc(Nc3cc(-c4ccnc(N5CCn6c(cc7c6CC(C)(C)C7)C5=O)c4CO)cn(C)c3=O)nc2)C1` [Example 207, 3-[3-(hydroxymethyl)-4-[1-methyl-5-[[5-(1-methylazetidin-3-yl)oxy-2-pyridyl]amino]-6-oxo-3-pyridyl]]-7,7-dimethyl-1,2,6,8-tetrahydrocyclopenta[3,4]pyrrolo[3,5-b]pyrazin-4-one], the IC70 was determined as 0.0414 µM. Consider `CCN1CCn2nc(Nc3cc(-c4ccnc(N5CCc6c(cc7n6CCCC7)C5=O)c4CO)cn(C)c3=O)cc2C1` [Example 208, 2-[4-[5-[(5-ethyl-6,7-dihydro-4H-pyrazolo[1,5-a]pyrazin-2-yl)amino]-1-methyl-6-oxo-3-pyridyl]-3-(hydroxymethyl)-2-pyridyl]-3,4,6,7,8,9-hexahydropyrido[3,4-b]indolizin-1-one], for which the IC70 worked out at 0.58 µM.

As to `CC(=O)N1CCn2nc(Nc3cc(-c4ccnc(N5CCn6c(cc7c6CCCC7)C5=O)c4CO)cn(C)c3=O)cc2C1` [Example 209, 2-[4-[5-[(5-acetyl-6,7-dihydro-4H-pyrazolo[1,5-a]pyrazin-2-yl)amino]-1-methyl-6-oxo-3-pyridyl]-3-(hydroxymethyl)-2-pyridyl]-3,4,6,7,8,9-hexahydropyrazino[1,2-a]indol-1-one], the IC70 worked out at 0.116 µM. With `C[C@H]1CN(C2COC2)CCN1c1ccc(Nc2cc(-c3ccnc(N4CCn5c(cc6c5CC(C)(C)C6)C4=O)c3C(N)=O)cn(C)c2=O)nc1` [Example 210, 2-(7,7-dimethyl-4-oxo-1,2,6,8-tetrahydrocyclopenta[3,4]pyrrolo[3,5-b]pyrazin-3-yl)-4-[1-methyl-5-[[5-[(2S)-2-methyl-4-(oxetan-3-yl)piperazin-1-yl]-2-pyridyl]amino]-6-oxo-3-pyridyl]pyridine-3-carboxamide], the IC70 came to 0.914 µM. Next, `CNC(=O)c1c(-c2cc(Nc3ccc(N4CCN(C5COC5)C[C@@H]4C)cn3)c(=O)n(C)c2)ccnc1N1CCn2c(cc3c2CC(C)(C)C3)C1=O` [Example 211, 2-(7,7-dimethyl-4-oxo-1,2,6,8-tetrahydrocyclopenta[3,4]pyrrolo[3,5-b]pyrazin-3-yl)-N-methyl-4-[1-methyl-5-[[5-[(2S)-2-methyl-4-(oxetan-3-yl)piperazin-1-yl]-2-pyridyl]amino]-6-oxo-3-pyridyl]pyridine-3-carboxamide]: 2.1 µM. Regarding `CC(=O)N1CCn2nc(Nc3cc(-c4ccnc(N5CCn6c(cc7c6CC(C)(C)C7)C5=O)c4CO)cn(C)c3=O)cc2C1` [Example 212, 3-[4-[5-[(5-acetyl-6,7-dihydro-4H-pyrazolo[1,5-a]pyrazin-2-yl)amino]-1-methyl-6-oxo-3-pyridyl]-3-(hydroxymethyl)-2-pyridyl]-7,7-dimethyl-1,2,6,8-tetrahydrocyclopenta[3,4]pyrrolo[3,5-b]pyrazin-4-one], the IC70 amounted to 0.0152 µM. For `Cc1nccc(Nc2cc(-c3ccnc(N4CCn5c6c(c(F)c5C4=O)CCCC6)c3CO)cn(C)c2=O)n1` [Example 213, 10-fluoro-2-[3-(hydroxymethyl)-4-[1-methyl-5-[(2-methylpyrimidin-4-yl)amino]-6-oxo-3-pyridyl]-2-pyridyl]-3,4,6,7,8,9-hexahydropyrazino[1,2-a]indol-1-one], the IC70 turned out to be 0.62 µM.

One may read the IC70 as the concentration at which the effect reaches the 70% level.
